{"source": "patent US9758516B2", "about": "“Crystalline form of an anxiolytic compound” (Bionomics Limited, priority 2013, dated 2017)", "key": {"[1]": {"conditions": "reported, see U.S. Pat. No. 8,293,737; cited from earlier work"}, "[2]": {"assay": "Stability study of Form B stored at about 40° C. and about 75% r.h. (HPLC, XRPD, IR)", "assay_type": "physicochemical", "set-up": "key to XRPD / IR: The term “complies” refers to substantially the same XRPD pattern and/or IR spectrum as the sample at the incept of the storage (time point=initial)", "conditions": "for Concentration of compound 1 by HPLC Assay (anhydrous basis) / IR / XRPD: about 40° C., about 75% r.h.", "protocol": "Standard solutions of the SP196-FD-P1 free drug of compound 1 and the L-malate salt of compound 1 (SP196-MLA-P4) were prepared in the concentration range of 0.2-0.05 mg/mL for the construction of a calibration curve.\nAnother sample of Form B was stored at about 40° C. and about 75% r.h. for a period of time (e.g., 6 months). The concentration of compound 1 in the sample was assayed using HPLC, XRPD, and IR at different time points. The term “complies” refers to substantially the same XRPD pattern and/or IR spectrum as the sample at the incept of the storage (time point=initial)."}, "[3]": {"assay": "Competitive slurry experiment, Form B versus anhydrous form", "assay_type": "physicochemical", "text": "In some embodiments, it would be desirable to provide a crystalline polymorph of compound 1 that, as compared to the amorphous compound 1, imparts improved physical characteristics such as stability and/or ease of formulation. Accordingly, provided herein is a crystalline form (denoted Form B) of compound 1. Form B is a hemihydrate of compound 1. […] In some embodiments, Form B has a water content of about 2.0 wt %. […] In a competitive slurry experiment there was a tendency for the anhydrous form to convert to Form B."}, "[4]": {"assay": "Drying of Form B under vacuum at 40° C.", "assay_type": "physicochemical", "protocol": "A solid sample of Form B was dried in an attempt to dehydrate it. The sample was stored under vacuum (<5 mbar (e.g., about 4 mbar)) at 40° C. overnight or for 1 day."}, "[5]": {"assay": "Stability study of Form B stored at about 25° C. and about 60% r.h. (HPLC, XRPD, IR)", "assay_type": "physicochemical", "set-up": "key to XRPD / IR: The term “complies” refers to substantially the same XRPD pattern and/or IR spectrum as the sample at the incept of the storage (time point=initial)", "conditions": "for Concentration of compound 1 by HPLC Assay (anhydrous basis) / IR / XRPD: about 25° C., about 60% r.h.", "protocol": "A sample of Form B was stored at about 25° C. and about 60% r.h. for a period of time (e.g., 24 months). The concentration of compound 1 in the sample was assayed using HPLC, XRPD, and IR at different time points. The term “complies” refers to substantially the same XRPD pattern and/or IR spectrum as the sample at the incept of the storage (time point=initial)."}, "[6]": {"assay": "Dynamic vapor sorption (DVS) measurement, hygroscopicity", "assay_type": "physicochemical", "protocol": "Projekt Messtechnik Sorptions Prüfsystem SPS 11-100n or Surface Measurement Systems DVS-1. The sample was placed on an aluminum or platinum holder on top of a microbalance and allowed to equilibrate for 2 h at 50% r.h. before starting one of two pre-defined humidity programs:\n(2) 50→0% r.h. (5%/h); 5 h at 0% r.h.;\n(3) 0→95% r.h. (5%/h); 5 h at 95% r.h.; and\nThe hygroscopicity was classified based on the mass gain at 85% r.h. relative to the initial mass as follows: deliquescent (sufficient water adsorbed to form a liquid), very hygroscopic (mass increase of ≧15%), hygroscopic (mass increase <15% and ≧2%), slightly hygroscopic (mass increase <2% and ≧0.2%), or non-hygroscopic (mass increase <0.2%).\nDuring the DVS measurement (FIG. 4), the relative humidity was first lowered from 50% r.h. to 0% r.h., then raised from 0% r.h. to 95% r.h. and lowered back again to 50% r.h. […] Upon increasing the relative humidity to 95% r.h., a gradual mass gain of about 0.3 wt % (relative to the mass at 0% r.h.) was observed. […] The mass increase of 0.1 wt % at 85% r.h. (relative to the starting mass at 50% r.h.) classifies the sample as non-hygroscopic."}, "[7]": {"conditions": "vacuum (<5 mbar) at 40° C. overnight or for 1 day"}}}
{"smiles": "CCn1cc(C(=O)N2CCOCC2)c(=O)c2cc(NC3Cc4ccccc4C3)cnc21", "note": "[Compound 1, 1-ethyl-6-(indan-2-ylamino)-3-(morpholine-4-carbonyl)-1,8-naphthyridin-4-one]", "values": [{"measurement": "sedative side effects", "setting": "[1]", "result": "without sedative side effects"}]}
{"smiles": "CCn1cc(C(=O)N2CCOCC2)c(=O)c2cc(NC3Cc4ccccc4C3)cnc21", "note": "[Form B, 1-ethyl-6-(indan-2-ylamino)-3-(morpholine-4-carbonyl)-1,8-naphthyridin-4-one]", "values": [{"measurement": "stable upon storage, duration", "setting": "[2]; about 40° C. and about 75% r.h.", "result": "at least 6 months"}, {"measurement": "Concentration of compound 1 by HPLC Assay (anhydrous basis)", "setting": "[2]; 1 month", "result": 99.6, "unit": "% w/w"}, {"measurement": "Concentration of compound 1 by HPLC Assay (anhydrous basis)", "setting": "[2]; 2 months", "result": 99.3, "unit": "% w/w"}, {"measurement": "Concentration of compound 1 by HPLC Assay (anhydrous basis)", "setting": "[2]; 3 months", "result": 99.3, "unit": "% w/w"}, {"measurement": "IR", "setting": "[2]; 3 months", "result": "complies"}, {"measurement": "XRPD", "setting": "[2]; 3 months", "result": "complies"}, {"measurement": "Concentration of compound 1 by HPLC Assay (anhydrous basis)", "setting": "[2]; 6 months", "result": 99.4, "unit": "% w/w"}, {"measurement": "IR", "setting": "[2]; 6 months", "result": "complies"}, {"measurement": "XRPD", "setting": "[2]; 6 months", "result": "complies"}, {"measurement": "Concentration of compound 1 by HPLC Assay (anhydrous basis)", "setting": "[2]; time point Initial", "result": 99.5, "unit": "% w/w"}, {"measurement": "relative stability of forms", "setting": "[3]", "result": "more stable than an anhydrous form of compound 1"}, {"measurement": "stability upon drying", "setting": "[4]", "result": "stable upon drying"}, {"measurement": "loss of H2O of the dried sample (TG-FTIR)", "setting": "[4]; dried sample, from 50° C. to 200° C.", "result": "about 1.9 wt %"}, {"measurement": "XRPD pattern of the dried sample compared to before drying", "setting": "[4]; [7]", "result": "unchanged"}, {"measurement": "dehydration on drying", "setting": "[4]; [7]", "result": "no dehydration and loss of solvent occurred"}, {"measurement": "stable upon storage, duration", "setting": "[5]; about 25° C. and about 60% r.h.", "result": "at least 24 months"}, {"measurement": "Concentration of compound 1 by HPLC Assay (anhydrous basis)", "setting": "[5]; 3 months", "result": 99.4, "unit": "% w/w"}, {"measurement": "IR", "setting": "[5]; 3 months", "result": "complies"}, {"measurement": "XRPD", "setting": "[5]; 3 months", "result": "complies"}, {"measurement": "Concentration of compound 1 by HPLC Assay (anhydrous basis)", "setting": "[5]; 6 months", "result": 99.6, "unit": "% w/w"}, {"measurement": "IR", "setting": "[5]; 6 months", "result": "complies"}, {"measurement": "XRPD", "setting": "[5]; 6 months", "result": "complies"}, {"measurement": "Concentration of compound 1 by HPLC Assay (anhydrous basis)", "setting": "[5]; 12 months", "result": 99.3, "unit": "% w/w"}, {"measurement": "IR", "setting": "[5]; 12 months", "result": "complies"}, {"measurement": "XRPD", "setting": "[5]; 12 months", "result": "complies"}, {"measurement": "Concentration of compound 1 by HPLC Assay (anhydrous basis)", "setting": "[5]; 18 months", "result": 99.4, "unit": "% w/w"}, {"measurement": "IR", "setting": "[5]; 18 months", "result": "complies"}, {"measurement": "XRPD", "setting": "[5]; 18 months", "result": "complies"}, {"measurement": "Concentration of compound 1 by HPLC Assay (anhydrous basis)", "setting": "[5]; 24 months", "result": 99.2, "unit": "% w/w"}, {"measurement": "IR", "setting": "[5]; 24 months", "result": "complies"}, {"measurement": "XRPD", "setting": "[5]; 24 months", "result": "complies"}, {"measurement": "Concentration of compound 1 by HPLC Assay (anhydrous basis)", "setting": "[5]; time point Initial", "result": 99.5, "unit": "% w/w"}, {"measurement": "hygroscopicity (in words)", "setting": "[6]", "result": "substantially non-hygroscopic"}, {"measurement": "FT-Raman spectrum after the DVS measurement compared to before", "setting": "[6]; after DVS cycle 50→0→95→50% r.h.", "result": "unchanged"}, {"measurement": "mass increase (DVS)", "setting": "[6]; at 85% r.h., relative to the starting mass at 50% r.h.", "result": 0.1, "unit": "wt %"}, {"measurement": "hygroscopicity classification", "setting": "[6]; based on the mass gain at 85% r.h. relative to the initial mass", "result": "non-hygroscopic (non-hygroscopic (mass increase <0.2%))"}, {"measurement": "mass gain (DVS)", "setting": "[6]; upon increasing the relative humidity to 95% r.h., relative to the mass at 0% r.h.", "result": "about 0.3 wt %"}, {"measurement": "mass loss (DVS)", "setting": "[6]; upon lowering the relative humidity from 50% r.h. to 0% r.h.", "result": "about 0.1 wt %"}, {"measurement": "final mass (DVS)", "setting": "[6]; upon lowering the relative humidity from 95% r.h. to 50% r.h.", "result": "equal to the starting mass"}]}
